Data on one compound can be found in US20180009764A1, “METHOD FOR TREATING MACROPHAGE MIGRATION INHIBITORY FACTOR (MIF)-IMPLICATED DISEASES AND CONDITIONS WITH IODO PYRIMIDINE DERIVATIVES” (UNIVERSITY OF LOUISVILLE RESEARCH FOUNDATION, INC., priority 2009, published 2018).

Assay [1] has as its system DU145 human prostate xenografts. Put plainly: Microvessel density in xenograft tumors (immunohistochemistry). Format: in vivo, athymic nude mice. The settings on record: end of the DU145 xenograft experiment; FIG. 9. The procedure: At the end of the experiment described in EXAMPLE 69 above, tumors in each group were removed and sliced. Blood vessel density of the tumor tissues was measured by immunohistochemistry. […] These in vivo results confirmed that the compounds described in this application inhibit angiogenesis.

Assay [2] relates to p53. Put plainly: p53 up regulation, p53 luciferase assay. Format: cell-based. The settings on record: 10 μM; FIG. 5. On the procedure: The up regulation of p53 was determined using a commercially available p53 luciferase assay kit. 1×10^5 cells/ml were plated in a 24 well plate and allowed to adhere overnight. MIF antagonists were added to the cells at the indicated concentrations for 16 hours and transiently co-transfected with 0.125 μg/well of p53-responsive luciferase promoter plasmid (Promega, Madison, Wis.) together with 0.0125 μg/well Renilla pRL-null plasmid (Promega) using Lipofectamine (Invitrogen) transfection reagent. After 24 hrs, Firefly and Renilla luciferase activities were measured by the Dual Luciferase Reporter Assay System (Promega, Madison, Wis.) on a TD-20/20 luminometer (Turner Designs).

For `Fc1ccccc1-c1cc(I)ncn1` [ACT-MIF-003, 4-Iodo-6-(2-fluorophenyl)pyrimidine], the “Microvessel density of tumor tissues” value in assay [1] is listed as “decrease in microvessel density with respect to the tumors of the control group with a statistically meaningful difference”. Further, the p53 regulation result in assay [2] is reported as “implicated in p53 regulation”.
